Reference: patent publication US20100312139A1, “Method for Identifying Mammals at Risk for Elevated intracranial Pressure” (BOARD OF REGENTS OF THE UNIVERSITY OF TEXAS SYSTEM, priority 2009, published 2010)

System: TBI-associated cerebral edema, controlled cortical impact model
Assay: Cerebral edema as percentage brain water content (wet-dry method) after controlled cortical impact brain injury
Assay type: in vivo
Settings: rat, 400 mg/kg administered 30 minutes after cortical impact injury, measured 24 hr after injury, versus control animals
Procedure: A number of studies have reported that blood-brain barrier compromise and cerebral edema are key contributors to the elevation of ICP. Penicillamine is a copper scavenger that is FDA approved for the treatment of Wilson's disease. Therefore penicillamine was used in this study to determine if sequestration of copper would restore TBI-associated BBB permeability and cerebral edema. […] BBB permeability was assessed by measuring the extravasation of Evans Blue dye as described in Zhao, et al., 2007 (Zhao, J., Moore, A. N., Redell, J. B. and Dash, P. K. 2007. Enhancing expression of Nrf2-driven genes protects the blood brain barrier after brain injury. J. Neurosci. 27, 10240-10248).
Cerebral edema was assessed by determining the percentage brain water content using the wet-dry method as described previously (McIntosh, T. K., Soares, H., Thomas, M. and Cloherty, K. 1990. Development of regional cerebral oedema after lateral fluid-percussion brain injury in the rat. Acta Neurochir. Suppl (Wien.) 51, 263-264; Shohami, E., Novikov, M. and Mechoulam, R. 1993. A nonpsychotropic cannabinoid, HU-211, has cerebroprotective effects after closed head injury in the rat. J. Neurotrauma 10, 109-119). BBB permeability and cerebral edema were measured 24 hr after injury, in independent sets of animals.

With `CC(C)(S)[C@@H](N)C(=O)O` [penicillamine, Penicillamine] the “effect on cerebral edema (percentage brain water content)” value was “did not have any effect”.
